Like-named read-outs stand apart in the source and are kept apart here. Ends that are not written are not given here. Peptide text beside a SMILES is read from it. * marks the point of attachment. FITC = O=C1OC2(c3ccc(O)cc3Oc3cc(O)ccc32)c2ccc(NC(=S)*)cc21; 125I = [125I]*
What was measured:
HLA-A*0201 = HLA-A*0201 (Homo sapiens, UniProt P04439, D140Y/D185E/D98H/E176V/E277Q/G131W/G231S/I119V/I121R/I166T/I218V/L300P/L318F/N151K/N90K/P208A/P217A/Q86G/Q94H/R138H/R169H/T345S); details: cited from earlier work; for IC50: read-out: cell-free systems (^125I) IC50, published values, 125I peptide tracer
sHLA-A*0201 [1] = molecular target: T1, sHLA-A*0201 (Homo sapiens, UniProt P04439, D140Y/D185E/D98H/E176V/E277Q/G131W/G231S/I119V/I121R/I166T/I218V/L300P/L318F/N151K/N90K/P208A/P217A/Q86G/Q94H/R138H/R169H/T345S); test: Epitope screening at a threshold concentration of 80 μM (FP competition); details: 80 μM peptide, 50 μg/mL sHLA-A*0201, 1 nM P5, β2m 2117 nM
sHLA-A*0201 [2] = molecular target: T1, sHLA-A*0201; test: biochemical; details: for kon: read-out: association rate constants kon
sHLA-A*0201 [3] = molecular target: T1, sHLA-A*0201; test: biochemical; format: binding; set-up: contained the leader peptide, as well as the α1, α2, and α3 coding domains of the HLA heavy chain; made in house; β2m from Fitzgerald Industries International
[4] = cited from earlier work
A*1102 = molecular target: T2, A*1102 (Homo sapiens, UniProt P04439, A114D/D185E/E176A/E43K/F33Y/L180Q/S129P/T187R); test: Multiple-specificity screening of FITC-labeled peptides (supertyping, FP); format: binding; details: 2 nM peptide, 100 μg/ml activated sHLA
T2 construct: contained the leader peptide, as well as the α1, α2, and α3 coding domains of the HLA heavy chain; made in house
Source text: (§1) Multiple-specificity screening of FITC-labeled peptides: To approach the problem of supertype analysis, a novel, state-of-the-art screening assay was developed that utilizes high quality soluble HLA and the technique of fluorescence polarization (FP). This assay combination allows the direct measurement of the ratio between free and bound labeled ligand in solution without any separation steps. The technique of FP is based on the principal that if a fluorescent-labeled peptide binds to the sHLA molecule of higher molecular weight, polarization values will increase due to the slower molecular rotation of the bound probe.
(§2) To elaborate peptide cross-reactivity among MHC class I molecules, a panel of 53 single-specificity sHLA receptors was screened for their binding capacity towards a series of fluorescent-labeled peptide ligands. During the process, each peptide candidate (2 nM) was incubated with 100 μg/ml of activated sHLA and peptide/MHC interaction was monitored over time on the Analyst™ AD Assay Detection System (Molecular Devices; Sunnyvale, Calif.). For optimal signal output, b2-microglobulin was added in 2× molar excess of the used sHLA concentration. For all preparations, 1× BGG/PBS was used as buffer. The use of appropriate controls allowed accurate estimation of specific polarization. […]

[5] = test system: alleles listed for the B27 supertype; test: as above; format: binding, human; details: 2 nM peptide, 100 μg/ml activated sHLA
Source text: as §1, §2

sHLA-A*0201 [6] = molecular target: T1, sHLA-A*0201; format: binding; set-up: contained the leader peptide, as well as the α1, α2, and α3 coding domains of the HLA heavy chain; made in house; β2m from Fitzgerald Industries International; details: 10 nM pFITC, sHLA-A*0201 titration
sHLA-A*0201 [7] = molecular target: T1, sHLA-A*0201; test: Multiple specificity screening by FP; format: binding; set-up: contained the leader peptide, as well as the α1, α2, and α3 coding domains of the HLA heavy chain; made in house; β2m from Fitzgerald Industries International; details: 10 nM peptide, 100 μg/mL activated sHLA
Protocol: Multiple Specificity Screening. To determine the specificity for sHLA-A*0201 as well as potential cross-reactivity to other sHLA alleles, 48 different sHLA alleles were screened for binding with the A*0201 pFITC constructs (FIG. 15). For screening purposes, each peptide candidate (10 nM) was incubated with 100 μg/mL activated sHLA, and the peptide/HLA interaction was monitored over time. As expected, no significant binding was detected to any of the B-alleles tested (FIG. 15B), whereas a high binding affinity was observed between sHLA-A*0201 and the pFITC candidates. An exception was pFITC P3 (FIG. 15A). […] The significant decrease in association kinetics recorded after 0.8 h seems to imply that the HLA class I molecule is not stabilized following exposure to this peptide, irrespective of whether it attempted to bind. […] Thus, modification of the residue at the P4 nonanchor position of pFITC P3 may not affect the specificity and association kinetics of peptide binding but rather seems to affect the stability of the class I peptide interaction.

[8] = read-out: dissociation rate constants
[9] = read-out: dissociation rate constants koff
[10] = 50 μg/mL (1059 nM) sHLA-A*0201, β2m 2117 nM, 1 nM FITC-labeled reference peptide P5, read-out: StD comp assay (FP) IC50

## CC[C@H](C)[C@H](NC(=O)[C@H](Cc1c[nH]c2ccccc12)NC(=O)[C@@H](NC(=O)CNC(=O)[C@H](Cc1ccccc1)NC(=O)[C@H](CO)NC(=O)[C@@H](NC(=O)[C@H](CC(C)C)NC(=O)[C@@H](N)Cc1ccc(O)cc1)C(C)C)C(C)C)C(=O)O
HLA-A*0201
  IC50: 1.9 nM

## LVMAPRTVL (listed as Homo sapiens)
sHLA-A*0201 [1]
  inhibition at 80 μM: minor

## FLPSDY(^125I)FPSV (FLPSDY(125I)FPSV; listed as Homo sapiens) [iodinated molecule of earlier publications (Sette et al., 1994a)]
HLA-A*0201; Sette et al., 1994a, read-out: affinity of the iodinated molecule in earlier publications
  Kd: 15.5 nM

## CSCC[C@H](NC(=O)[C@H](CC(C)C)NC(=O)[C@H](C)N)C(=O)N[C@@H](CC(=O)O)C(=O)N[C@@H](CCCCN)C(=O)N[C@H](C(=O)N[C@@H](CC(C)C)C(=O)N[C@@H](CCCCNC(=S)Nc1ccc2c(c1)C(=O)OC21c2ccc(O)cc2Oc2cc(O)ccc21)C(=O)N[C@H](C(=O)O)C(C)C)C(C)C [P5]
sHLA-A*0201 [2]
  kon: 86800 M⁻¹ s⁻¹
sHLA-A*0201 [2]; [8]
  koff: 0.00019 to 0.00043 s⁻¹
sHLA-A*0201 [2]; [9]
  koff: 0.000188 s⁻¹

## CC(C)C[C@H](N)C(=O)N[C@H](C(=O)N[C@@H](Cc1ccccc1)C(=O)NCC(=O)N[C@@H](CCCCNC(=S)Nc1ccc2c(c1)C(=O)OC21c2ccc(O)cc2Oc2cc(O)ccc21)C(=O)N[C@@H](CCC(=O)O)C(=O)N[C@H](C(=O)N[C@H](C(=O)N[C@@H](CCC(=O)O)C(=O)N[C@H](C(=O)O)C(C)C)C(C)C)C(C)C)C(C)C [P4, L V F G K E V V E V] (H-LVFGK(FITC)EVVEV-OH)
sHLA-A*0201 [2]
  kon: 9900 M⁻¹ s⁻¹
sHLA-A*0201 [2]; [8]
  koff: 0.00019 to 0.00043 s⁻¹
sHLA-A*0201 [2]; [9]
  koff: 0.000284 s⁻¹

## YLLPAIVHI
HLA-A*0201
  IC50: 18 nM
sHLA-A*0201 [3]; [10]
  IC50: 510 nM

## fluorescein isothiocyanate [FITC]
[4]
  pKa: approximately 6.5

## GRAFVTIKK
A*1102
  binding capacity: high A*1102 binding capacity
[5]
  binding: did not bind

## DLVHFASPL
HLA-A*0201
  IC50: 16700 nM
sHLA-A*0201 [3]; [10]
  IC50: 366000 nM

## N L S K L S L D V (NLSKLSLDV; also: FITC label, position not given here; listed as Homo sapiens) [P3]
sHLA-A*0201 [6]
  saturation curve / stable complex formation with sHLA-A*0201: not able to form stable complexes with sHLA-A*0201
sHLA-A*0201 [7]
  binding: failed to attain a higher polarization level compared to the other candidates

## KLGEFYNQMM
sHLA-A*0201 [3]; [10]
  IC50: 2820 nM
sHLA-A*0201 [3]; IC50 with different pFITC reference peptides
  IC50: 2480 to 10500 nM
sHLA-A*0201 [3]; IC50 within the different tracer systems
  IC50: 2480 to 10500 nM

— US20070026433A1, “Epitope testing using soluble HLA” (priority 2001, published 2007)
